Results on twelve compounds are retold here after US7253285B2, “Thiazolinone 4-monosubstituted quinolines” (Hoffmann-La Roche Inc., priority 2004, dated 2007).

The target of data set [1] is T1, recombinant human CDK1/Cyclin B complex (Homo sapiens, UniProt P06493).
T1 construct: made in house; host or cells: High Five insect cells (baculovirus) for CDK1/GST-cyclin B; E. coli M15 for the Rb substrate
Kind of data set: CDK1/Cyclin B kinase assay (FlashPlate or HTRF). It counts as biochemical. As to conditions: Rb protein substrate, Ki=IC50/(1+[S]/Km). The protocol: To determine inhibition of CDK1 activity, either FlashPlate™ (NEN™-Life Science Products) assay or HTRF assay was performed. Both types of kinase assays were carried out using recombinant human CDK1/Cyclin B complex. GST-cyclinB (GST-cycB) and CDK1 cDNA clones in baculovirus vectors were provided by Dr. W. Harper at the Baylor College of Medicine, Houston, Tex. Proteins were co-expressed in High Five™ insect cells and the complex was purified on glutathione Sepharose resin (Pharmacia, Piscataway, N.J.) as previously described (Harper, J. W. et al. Cell 1993, 75, 805-816). A 6×-Histidine tagged truncated form of retinoblastoma (Rb) protein (amino acid 386-928) was used as the substrate for the CDK1/Cyclin B assay (the expression plasmid was provided by Dr. Veronica Sullivan, Department of Molecular Virology, Roche Research Centre, Welwyn Garden City, United Kingdom). The Rb protein is a natural substrate for phosphorylation by CDK1 (see Herwig and Strauss Eur. J. Biochem. Vol. 246 (1997) pp. 581-601 and the references cited therein). The expression of the 62 Kd protein was under the control of an IPTG inducible promoter in an M15 E. coli strain. Cells were lysed by sonication and purification was carried out by binding lysates at pH 8.0 to a Ni-chelated agarose column pretreated with 1 mM imidazole. The resin was then washed several times with incrementally decreasing pH buffers to pH 6.0, and eluted with 500 mM imidazole. Eluted protein was dialysed against 20 mM HEPES pH 7.5, 30% glycerol, 200 mM NaCl, and 1 mM DTT. Purified Rb fusion protein stocks were quantitated for protein concentration, aliquoted, and stored at −70° C.
For the FlashPlate kinase assay, 96-well FlashPlates were coated with Rb protein at 10 μg/ml, using 100 μl per well. Plates were incubated at 4° C. overnight or at room temperature for 3 hours on a shaker. To control for nonspecific phosphorylation, one row of wells was coated with 100 μl/well coating buffer (20 mM HEPES, 0.2 M NaCl). Plates were then washed twice with wash buffer (0.01% Tween 20 in phosphate-buffered saline). Compounds to be tested (“test compounds”) were added to the wells at 5× final concentration. Reactions were initiated by immediate addition of 40 μl reaction mix (25 mM HEPES, 20 mM MgCl2, 0.002% Tween 20, 2 mM DTT, 1 μM ATP, 4 nM ^33P-ATP) and a sufficient amount of enzyme to give counts that were at least 10-fold above background. Plates were incubated at room temperature on a shaker for 30 minutes. Plates were washed four times with the wash buffer, sealed, and counted on the TopCount scintillation counter (Packard Instrument Co., Downers Grove, Ill.]. The percent inhibition of Rb phosphorylation, which is a measure of the inhibition of CDK activity, was determined according to the following formula:
[formula] where “test compound” refers to the average counts per minute of the test duplicates, “nonspecific” refers to the average counts per minute when no CDK1/Cyclin B, etc., was added, and “total” refers to the average counts per minute when no compound was added. The IC50 value is the concentration of test compound that reduces by 50% the protein-kinase induced incorporation of the radiolabel under the test conditions described. The value of the inhibitor constant Ki is calculated by the following: Ki=IC50/(1+[S]/Km), where [S] is the ATP concentration and Km is Michaelis constant.
The Homogeneous Time Resolved Fluorescence (HTRF) kinase assay was carried out in 96-well polypropylene plates (BD Biosciences, Bedford, Mass.). Test compounds were first dissolved in DMSO, and then diluted in kinase assay buffer 1 (25 mM HEPES, pH7.0, 8 mM MgCl2, 1.5 mM DTT, and 162 μM ATP) with DMSO concentration at 15%. The CDK1/Cyclin B enzyme was diluted in kinase assay buffer 2 (25 mM HEPES, pH 7.0, 8 mM MgCl2, 0.003% Tween 20, 0.045% BSA, 1.5 mM DTT, and 0.338 μM Rb protein). […]
For orientation: TR-FRET usually uses a lanthanide donor and a delayed reading to cut background.

pKi: −log10 of the molar value. Counter-ions that a name gives are not always drawn.

T1 sequence (P06493 whole entry): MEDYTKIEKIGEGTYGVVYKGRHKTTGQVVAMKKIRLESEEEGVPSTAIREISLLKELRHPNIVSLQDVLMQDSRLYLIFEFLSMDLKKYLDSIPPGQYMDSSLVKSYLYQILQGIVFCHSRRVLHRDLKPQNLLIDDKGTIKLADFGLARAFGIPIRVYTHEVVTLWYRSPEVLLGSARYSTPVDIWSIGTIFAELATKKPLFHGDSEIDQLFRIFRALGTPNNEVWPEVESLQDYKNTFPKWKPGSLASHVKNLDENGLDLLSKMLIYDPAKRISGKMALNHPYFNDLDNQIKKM
T1 sequence (P14635 whole entry partner): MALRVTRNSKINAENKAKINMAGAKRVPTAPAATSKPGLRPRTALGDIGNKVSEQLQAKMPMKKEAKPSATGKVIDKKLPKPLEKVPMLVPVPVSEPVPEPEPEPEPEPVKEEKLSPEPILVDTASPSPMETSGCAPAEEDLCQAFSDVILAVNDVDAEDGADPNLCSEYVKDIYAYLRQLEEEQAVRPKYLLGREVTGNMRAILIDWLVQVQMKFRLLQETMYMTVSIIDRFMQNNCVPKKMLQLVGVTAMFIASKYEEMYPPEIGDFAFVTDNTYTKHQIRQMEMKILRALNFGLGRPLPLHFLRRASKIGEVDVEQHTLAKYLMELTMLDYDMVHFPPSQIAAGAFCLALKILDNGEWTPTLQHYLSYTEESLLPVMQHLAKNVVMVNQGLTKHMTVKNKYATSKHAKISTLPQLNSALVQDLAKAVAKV

Take `NC1=NC(=O)/C(=C/c2ccc3nccc(Oc4ccccc4)c3c2)S1` [Example 25, 2-Amino-5-(4-phenoxy-quinolin-6-ylmeth-(Z)-ylidine)-thiazol-4-one]: the pKi in data set [1] was 6.47.

Compound `O=C1N=C(N[C@H]2C[C@@H]2c2ccccc2)S/C1=C\c1ccc2nccc(OCC3CCCCC3)c2c1` [Example 10, 5-(4-Cyclohexylmethoxy-quinolin-6-ylmeth-(Z)-ylidine)-2-((1R,2S)-2-phenyl-cyclopropylamino)-thiazol-4-one] returned a melting point of 223 to 227 °C. For the same compound, the negative-log Ki (pKi) in data set [1] was 5.93.

Consider `CCOc1ccnc2ccc(/C=C3\SC(N[C@H]4C[C@@H]4c4ccccc4)=NC3=O)cc12` [Example 5, 5-(4-Ethoxy-quinolin-6-ylmeth-(Z)-ylidine)-2-((1R,2S)-2-phenyl-cyclopropylamino)-thiazol-4-one], for which the melting point is 266 to 268 °C. Also, in data set [1], the pKi is 7.41.

For `CCSc1ccnc2ccc(/C=C3\SC(N[C@H]4C[C@@H]4c4ccccc4)=NC3=O)cc12` [Example 35, 5-(4-Ethylsulfanyl-quinolin-6-ylmeth-(Z)-ylidine)-2-((1R,2S)-2-phenyl-cyclopropylamino)-thiazol-4-one], the pKi in data set [1] was 7.43.

Take `COc1ccnc2ccc(/C=C3\SC(NCc4cccs4)=NC3=O)cc12` [Example 1, 5-(4-Methoxy-quinolin-6-ylmeth-(Z)-ylidine)-2-[(thiophen-2-ylmethyl)-amino]-thiazol-4-one]: the melting point was 258 to 262 °C.

As for `COCCOc1ccnc2ccc(/C=C3\SC(N)=NC3=O)cc12` [Example 20, 2-Amino-5-[4-(2-methoxy-ethoxy)-quinolin-6-ylmeth-(Z)-ylidine]-thiazol-4-one as trifluoroacetate salt], the negative-log Ki (pKi) in data set [1] was 7.49.

As to `CCOc1ccnc2ccc(/C=C3\SC(NCc4cnc(C)cn4)=NC3=O)cc12` [Example 30, 2-[(5-Methyl-pyrazin-2-ylmethyl)-amino]-5-(4-ethoxy-quinolin-6-ylmeth-(Z)-ylidine)-thiazol-4-one], in data set [1], the pKi is 6.55.

As to `O=C1N=C(NCc2cccs2)S/C1=C\c1ccc2nccc(N3CCOCC3)c2c1` [Example 15, 5-(4-Morpholin-4-yl-quinolin-6-ylmeth-(Z)-ylidine)-2-[(thiophen-2-ylmethyl)-amino]-thiazol-4-one], the negative logarithm of the Ki (pKi) in data set [1] is 6.68.

In turn, `CCOc1ccnc2ccc(/C=C3\SC(NCc4cccs4)=NC3=O)cc12` [Example 4, 5-(4-Ethoxy-quinolin-6-ylmeth-(Z)-ylidine)-2-[(thiophen-2-ylmethyl)-amino]-thiazol-4-one] registered a melting point of 226 to 228 °C.

Turning to `CCOc1ccnc2ccc(/C=C3\SC(NCCc4cccc(F)c4)=NC3=O)cc12` [Example 40], in data set [1], the negative logarithm of the Ki (pKi) is 7.89.

As to `COc1ccnc2ccc(/C=C3\SC(N[C@H]4C[C@@H]4c4ccccc4)=NC3=O)cc12` [Example 2, 5-(4-Methoxy-quinolin-6-ylmeth-(Z)-ylidine)-2-((1R,2S)-2-phenyl-cyclopropylamino)-thiazol-4-one], the melting point was 251 to 253 °C.

As to `O=C1N=C(NCc2cccs2)S/C1=C\c1ccc2nccc(Oc3ccccc3)c2c1` [Example 24, 5-(4-Phenoxy-quinolin-6-ylmeth-(Z)-ylidine)-2-[(thiophen-2-ylmethyl)-amino]-thiazol-4-one], the melting point lay in the range of 239 to 240.5 °C.

The term pKi denotes −log10 of the Ki, conventionally taken in molar units. By melting point is commonly meant the temperature of the solid-liquid transition.
